# According to ChEMBL document CHEMBL1201862, “PubChem BioAssay data set” (2004):
#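 In this assay, cells in 96-well plates receive the compound at five concentrations for 48 hours. Endpoints are linearly interpolated between the surrounding concentrations. GI50: concentration for 50% inhibition of growth.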 The source made the active and inactive calls. Rule as the data show it: active = GI50 up to about 1.1 µM and inactive = higher.
# Columns and labels:
# Experiment in all cases: NCI-60 cell line screen, 48 h
# OVCAR-3 = test system: OVCAR-3
# HT-29 = test system: HT-29
# HOP-92 = test system: HOP-92
# CAKI-1 = test system: CAKI-1
# SK-MEL-2 = test system: SK-MEL-2
# OVCAR-4 = test system: OVCAR-4
# HCT-116 = test system: HCT-116
# UACC-62 = test system: UACC-62
# Malme-3M = test system: Malme-3M
# TK-10 = test system: TK-10
# SN12C = test system: SN12C
# SR = test system: SR
# SW-620 = test system: SW-620
# NCI-H226 = test system: NCI-H226
# SNB-19 = test system: SNB-19
# OVCAR-8 = test system: OVCAR-8
# EKVX = test system: EKVX
# K562 = test system: K562
# NCI-H460 = test system: NCI-H460
# ACHN = test system: ACHN
smiles,measurement,setting,value
O=C1C=CC2=[N+]([O-])C(c3ccccc3)(c3ccccc3)/C(=N\c3ccccc3)C2=C1,GI50,OVCAR-3,1.82 µM (inactive)
same,GI50,HT-29,2.41 µM (inactive)
same,GI50,HOP-92,1.7 µM (inactive)
same,GI50,CAKI-1,2.44 µM (inactive)
same,GI50,SK-MEL-2,18.2 µM (inactive)
same,GI50,OVCAR-4,1.8 µM (inactive)
same,GI50,HCT-116,1.97 µM (inactive)
same,GI50,UACC-62,2.1 µM (inactive)
same,GI50,Malme-3M,2.29 µM (inactive)
same,GI50,TK-10,1.8 µM (inactive)
same,GI50,SN12C,2.22 µM (inactive)
same,GI50,SR,0.269 µM (active)
same,GI50,SW-620,1.91 µM (inactive)
same,GI50,NCI-H226,8.89 µM (inactive)
same,GI50,SNB-19,17.2 µM (inactive)
same,GI50,OVCAR-8,1.75 µM (inactive)
same,GI50,EKVX,4.14 µM (inactive)
same,GI50,K562,2.1 µM (inactive)
same,GI50,NCI-H460,11 µM (inactive)
same,GI50,ACHN,1.74 µM (inactive)
